{
  "source": "patent US20250295648A1",
  "about": "(priority 2024, published 2025)",
  "key": {"[1]": {"test_system": "L-DOPA-induced dyskinesia in rat", "conditions": "2-week treatment period; cited from earlier work"}, "PD patients with LID": {"test_system": "PD patients with LID", "assay": "Epworth Sleepiness Scale (ESS)", "assay_type": "in vivo, human", "conditions": "for ESS, mean change from baseline: per-protocol set", "source_text": "The ESS is a self-administered questionnaire with 8 questions. Respondents are asked to rate, on a 4-point scale (0-3), their usual chances of dozing off or falling asleep while engaged in 8 different activities. The ESS score (the sum of 8 item scores, 0-3) can range from 0 to 24. Ratings are based on the previous month, or in the case of this study, the intervening period since the previous clinic visit (about 3 weeks)."}},
  "data": [
    {"smiles": "Cc1ccc(CNCC2(F)CCN(C(=O)c3ccc(F)c(Cl)c3)CC2)nc1", "note": "[NLX-112, (3-chloro-4-fluoro-phenyl)-[4-fluoro-4-{[(5-methyl-pyridin-2-ylmethyl)-amino]-methyl}piperidin-1-yl]methanone]", "values": [
      {"measurement": "antidyskinetic efficacy against L-DOPA-induced dyskinesia", "setting": "[1]", "value": "did maintain its antidyskinetic efficacy"},
      {"measurement": "sleepiness (ESS)", "setting": "PD patients with LID; Days 28 or 42", "value": "no consistent statistically significant effect"},
      {"measurement": "ESS, mean", "setting": "PD patients with LID; per-protocol set (n = 15), Baseline", "value": 8.3},
      {"measurement": "ESS, mean change from baseline", "setting": "PD patients with LID; Δ D 28 (end of up-titration)", "value": "−1.1"},
      {"measurement": "ESS, mean change from baseline", "setting": "PD patients with LID; Δ D 42 (end of stable dosing)", "value": "−0.9"}
    ]}
  ]
}
